Measured values: patent US10674724B2, “Method of activating immune response in plants” (priority 2012, dated 2020)

Columns and labels:
solubility in water = format: physicochemical
NPR1 [1] = biological target: T1, NPR1 (Arabidopsis thaliana, UniProt P93002); experiment: homologous and heterologous competitive binding curves for the [14C]SA-NPR1 interaction (equilibrium dialysis); settings: 0.08 μM NPR1, 0.07 μM [14C]SA
T1 construct: made in house; host or cells: E. coli
Description: Given the dissociation reaction:
For the saturation binding curves (FIGS. 1C and 7D/E), 0.8 μM of NPR1 protein was incubated with a final concentration of 0.007-14 μM [^14C]SA. The data was analyzed by non-linear regression using GraphPad PRISM 4 and fitted to a one-site-binding rectangular hyperbola. For homologous and heterologous competitive binding curves (FIGS. 1E/F and 7F/G), 0.08 μM of NPR1 protein was incubated with a final concentration of 0.07 μM [^14C]SA.

NPR1 [2] = biological target: T1, NPR1; experiment: Sephacryl S300 gel filtration of Strep-tagged NPR1; format: biochemical; settings: 1 mM SA, catechol, 4-hydroxy benzoic acid or methyl-salicylate, 30 min; DTT concentration not given
Description: Strep-tagged purified proteins in a final volume of 2 ml were subjected to gel filtration analysis on the Sephacryl S100 HR or Sephacryl S300 HR packed in 50 cm long HR 16 columns (GE Health) and equilibrated with S300 chromatography buffer (50 mM HEPES, pH 7.4, 250 mM NaCl. Elutions, in 0.5 ml fractions, were performed in the same buffer at a flow rate of 0.8 ml/min. Where indicated, proteins were incubated with 1 mM SA, 1 mM catechol, 1 mM 4-hydroxy benzoic acid, or 1 mM methyl-salicylate at room temperature for 30 min prior to chromatography as described above with the exception that the chromatography buffer was supplemented with 1 mM SA, 1 mM catechol, 1 mM 4-hydroxy benzoic acid, or 1 mM methyl-salicylate, respectively. In the case of the EDTA treatment, NPR1 was stripped of its metal by a 50 mM EDTA treatment of 30 min, followed by an incubation of 30 min with 1 mM SA prior to gel filtration. In this case, the chromatography buffer was supplemented with 1 mM SA.

[3] = biological target: T2, NPR1-dependent oligomer on the PR-1 promoter (Arabidopsis thaliana, UniProt P93002); experiment: Cross-linked-chromatin chromatography (3C Method); format: in vivo; settings: wild-type plants, region −734 to −833
T2 construct: in wild-type plants (WT), such an oligomer forms on the PR-1 promoter; endogenous in cells; host or cells: wild-type Arabidopsis plants
T2 sequence (P93002 1-593): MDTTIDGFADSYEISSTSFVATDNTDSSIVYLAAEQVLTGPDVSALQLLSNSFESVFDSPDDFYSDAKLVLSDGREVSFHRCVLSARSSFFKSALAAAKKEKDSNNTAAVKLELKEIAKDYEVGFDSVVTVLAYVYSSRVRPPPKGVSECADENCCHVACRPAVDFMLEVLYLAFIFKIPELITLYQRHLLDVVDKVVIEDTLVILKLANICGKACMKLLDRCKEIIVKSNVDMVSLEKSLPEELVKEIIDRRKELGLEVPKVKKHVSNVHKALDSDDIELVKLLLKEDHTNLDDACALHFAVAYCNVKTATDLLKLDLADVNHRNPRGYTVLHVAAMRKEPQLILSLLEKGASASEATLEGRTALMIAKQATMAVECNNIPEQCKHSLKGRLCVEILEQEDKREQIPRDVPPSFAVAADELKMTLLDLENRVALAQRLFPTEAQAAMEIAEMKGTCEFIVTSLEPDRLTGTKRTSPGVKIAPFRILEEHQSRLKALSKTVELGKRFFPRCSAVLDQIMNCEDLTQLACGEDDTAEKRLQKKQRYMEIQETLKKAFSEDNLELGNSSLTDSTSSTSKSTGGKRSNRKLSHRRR
Description: Plant treatment, cross-linking, sonication, and cross-linking reversal were performed as for chromatin-immunoprecipitation (Rochon et al., 2006). Chromatography was as described under “Chromatography”. qPCR was performed with PR1 and Ubiquitin5 primers. PR-1 values were normalized against Ubiquitin5 (see Table 1 for primer sequence).
Although there are no decisive methods to test the stoichiometry of a protein in vivo, it was determined whether or not NPR1-dependent oligomers form on DNA in vivo by combining chromatin cross-linking, gel filtration, and qPCR (the 3C Method). The rationale was that, if an NPR1-dependent oligomer forms on the PR1 promoter in vivo, the presence of PR1 should be detectable by qPCR in the void fraction of an S300 after the chromatin had been cross-linked and sheared by sonication.

PR-1 expression = PR-1 expression by quantitative RT-PCR after chemical treatment; format: in vivo, Arabidopsis; settings: 12 hrs
Description: Total RNA was extracted from leaves using the Rneasy plant mini kit (Qiagen) according to the supplier's instructions. After treatment with Dnase I (Invitrogen), first strand cDNA synthesis was generated using SuperScript II reverse transcriptase (Invitrogen), and the (dT)17VN oligo in the presence of 0.4 U Rnasin (Fisher Scientific). The newly-synthesized cDNA was diluted 1/200 to reflect a concentration of 10 ng μL^−1 input total RNA. RT-PCR was performed on a CFX96 spectrofluorometric thermal cycler (BioRad). Firefly luciferase values were normalized against Renilla Luciferase and PR-1 values against Ubiquitin5 (see Table 1 for primer sequence). […] All treatments were for 12 hrs. Values consist of n=3 biological replicates and represent averages±1 SD.

[4] = 300 μM, fold-induction over water

With `O=C(O)c1cc(Cl)cc(Cl)c1O` [3,5-dichloro SA] as the molecule, how does the solubility in water (solubility in water) read?
The solubility in water was “low solubility in water”.

Which “affinity for NPR1 compared with SA (competitive binding)” value (shortened to “affinity for NPR1 compared with SA”) (NPR1 [1]) does the source give for `O=C(O)c1cccc(O)c1` [3-hydroxy benzoic acid] here?
Its value is “do not interact with NPR1 with the same affinity as SA”.

For `O=C(O)c1ccc(Cl)cc1O` [4-chloro SA], which solubility in water (solubility in water) is on record?
The solubility in water was “low solubility in water”.

For `O=C(O)c1ccc(O)cc1` [4-hydroxy benzoic acid], which “affinity for NPR1 compared with SA” value (NPR1 [1]) is on record?
The value was “do not interact with NPR1 with the same affinity as SA”.

And the “conformation of NPR1 (S300 elution profile)” value (“conformation of NPR1” below) (NPR1 [2])?
Its value is “do not alter the conformation of NPR1”.

What about the “NPR1-dependent oligomer on the PR-1 promoter (void fraction, qPCR)” value [3] of the same molecule?
Its value is “did not reduce the amount of NPR1-dependent oligomer”.

With `CSC(=O)c1cccc2nnsc12` [BTH, benzo(1,2,3)thiadiazole-7-carbothioic acid S-methyl ester] as the molecule, how does the solubility in water (solubility in water) read?
The solubility in water was “low solubility in water”.

And the “NPR1-dependent oligomer on the PR-1 promoter (void fraction, qPCR)” value [3]?
The value was “reduced the amount of NPR1-dependent oligomer on the PR-1 promoter”.

What about the PR-1 expression (PR-1 expression; BTH at 100 μM) of the same molecule?
The PR-1 expression was “capacity to induce PR-1 expression”.

For `O[C@@H](CS)[C@@H](O)CS` [DTT], which “conformation of NPR1” value (NPR1 [2]) is on record?
Its value is “did not induce a redistribution of the protein to the included volume”.

For `O=C(O)c1cc(Cl)nc(Cl)c1` [INA, 2,6-dichloroisonicotinic acid], which solubility in water (solubility in water) is on record?
The solubility in water was “low solubility in water”.

And the “NPR1-dependent oligomer on the PR-1 promoter (void fraction, qPCR)” value [3]?
Its value is “did not affect the NPR1-dependent oligomer on the PR-1 promoter”.

What about the PR-1 expression (PR-1 expression; 300 μM) of the same molecule?
The PR-1 expression was “poor inducer of PR-1 expression”.

What about the “PR-1 induction, times less effective than an identical concentration of 4-chloro SA” value (PR-1 expression; [4]) of the same molecule?
Its value is 10 times.

What about the “PR-1 induction, times less effective than an identical concentration of SA” value (PR-1 expression; [4]) of the same molecule?
Its value is 42 times.

With `Oc1ccccc1O` [catechol] as the molecule, how does the “affinity for NPR1 compared with SA” value (NPR1 [1]) read?
The value was “do not interact with NPR1 with the same affinity as SA”.

And the “conformation of NPR1” value (NPR1 [2])?
The value was “do not alter the conformation of NPR1”.
